Test results from ChEMBL document CHEMBL4406802, “Human disorders associated with inflammation and the evolving role of natural products to overcome” (Eur J Med Chem, 2019).

Target: T1, Prostaglandin G/H synthase 1 (Ovis aries, UniProt P05979)
T1 sequence (P05979 whole entry): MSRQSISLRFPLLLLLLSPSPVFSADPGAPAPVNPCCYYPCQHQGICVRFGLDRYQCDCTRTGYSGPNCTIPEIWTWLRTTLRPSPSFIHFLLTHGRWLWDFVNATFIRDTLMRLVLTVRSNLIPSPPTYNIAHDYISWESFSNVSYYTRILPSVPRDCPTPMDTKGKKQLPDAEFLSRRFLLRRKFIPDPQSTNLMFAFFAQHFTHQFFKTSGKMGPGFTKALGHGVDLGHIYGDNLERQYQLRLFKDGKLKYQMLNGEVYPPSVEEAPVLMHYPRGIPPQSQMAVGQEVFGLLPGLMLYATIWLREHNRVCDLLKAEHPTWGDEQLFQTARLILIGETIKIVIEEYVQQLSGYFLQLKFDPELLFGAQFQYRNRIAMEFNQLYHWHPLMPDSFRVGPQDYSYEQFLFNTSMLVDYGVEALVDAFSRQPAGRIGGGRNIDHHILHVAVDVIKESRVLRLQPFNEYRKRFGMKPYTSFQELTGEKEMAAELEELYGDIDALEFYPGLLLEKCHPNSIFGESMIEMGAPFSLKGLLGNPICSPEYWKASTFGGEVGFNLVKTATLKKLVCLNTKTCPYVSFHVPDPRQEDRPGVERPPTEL
Experiment: Inhibition of ovine COX1
Conditions: not given

Row | IC50 | Structure (SMILES)
1 | 2.09 µM | O=C(/C=C/c1ccc(O)c(O)c1)OC(C(=O)O)C(OC(=O)/C=C/c1ccc(O)c(O)c1)C(OC(=O)/C=C/c1ccc(O)c(O)c1)C(OC(=O)/C=C/c1ccc(O)c(O)c1)C(=O)O (stereo unspecified)
2 | 4.96 µM | O=C(/C=C/c1ccc(O)c(O)c1)OC1CC(O)(C(=O)O)CC(OC(=O)/C=C/c2ccc(O)c(O)c2)C1O (stereo unspecified)
3 | 5.87 µM | O=C(/C=C/c1ccc(O)c(O)c1)OC1CC(O)(C(=O)O)CC(O)C1OC(=O)/C=C/c1ccc(O)c(O)c1 (stereo unspecified)

Target: T2, Prostaglandin G/H synthase 2 (Homo sapiens) (UniProt P35354)
T2 sequence (whole entry): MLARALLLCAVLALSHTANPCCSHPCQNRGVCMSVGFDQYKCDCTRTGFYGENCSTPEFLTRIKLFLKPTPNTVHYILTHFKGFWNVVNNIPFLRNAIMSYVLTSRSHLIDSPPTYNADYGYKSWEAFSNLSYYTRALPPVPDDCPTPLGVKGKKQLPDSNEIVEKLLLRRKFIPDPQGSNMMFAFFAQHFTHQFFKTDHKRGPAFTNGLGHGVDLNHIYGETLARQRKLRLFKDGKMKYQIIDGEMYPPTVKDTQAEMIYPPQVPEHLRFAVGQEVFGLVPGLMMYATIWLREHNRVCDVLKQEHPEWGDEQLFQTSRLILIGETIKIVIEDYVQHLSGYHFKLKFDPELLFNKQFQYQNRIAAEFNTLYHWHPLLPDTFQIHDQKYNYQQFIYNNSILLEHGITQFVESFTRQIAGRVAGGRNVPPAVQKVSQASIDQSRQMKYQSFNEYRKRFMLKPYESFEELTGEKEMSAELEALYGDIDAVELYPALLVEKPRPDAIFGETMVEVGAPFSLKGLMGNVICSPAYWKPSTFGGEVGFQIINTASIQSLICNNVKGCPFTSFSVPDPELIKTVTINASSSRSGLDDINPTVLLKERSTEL
Experiment: Inhibition of N-terminal His6-tagged recombinant human COX2 expressed in baculovirus infected sf21 cells at 20 uM relative to control
Conditions: not given

Row | inhibition | Structure (SMILES)
4 | 98.6% | C=C1C(=O)O[C@@H]2[C@H]3[C@@H](C)C(=O)C[C@H]3C(=C)CC[C@@H]12

Test system: RAW264.7
Experiment: Antiinflammatory activity in mouse RAW264.7 cells assessed as inhibition of LPS-induced nitric oxide production at 25 uM relative to control
Format: functional
Conditions: not given

Row | Structure (SMILES) | inhibition at 25 µM
5 | C=C1C(=O)O[C@@H]2C[C@]3(C)C(O)CCC(C)C3(O)C[C@H]12 (stereo partly specified) | 37.1%
6 | CC1=C2C[C@H]3[C@@H](C[C@]2(C)C(O)CC1=O)OC(=O)[C@@H]3C (stereo partly specified) | 23.6%
7 | C=C1C(=O)O[C@@H]2C[C@@]3(C)C(=C(C)C(O)CC3O)C[C@H]12 (stereo partly specified) | 23.8%
8 | C=C1C(=O)OC2CC(C)=C(C(C)CCCOC(C)=O)C(OC(C)=O)C12 (stereo unspecified) | 68.9%
9 | CC1CCC(O)[C@@]2(C)C[C@H]3OC(=O)[C@H](C)[C@H]3C=C12 (stereo partly specified) | 14.6%

Test system: not listed separately
Experiment: Inhibition of TNFalpha-induced NFkappaB (unknown origin) activation expressed in mouse NIH-3T3 cells […] followed by TNFalpha addition measured after 6 hrs by luciferase reporter gene assay
Format: cell-based
Conditions: NIH3T3

Row | IC50 | Structure (SMILES)
10 | 22.5 µM | C=C[C@]1(C)C[C@H](OC(=O)C(=C)CO)[C@H]2C(=C)C(=O)O[C@@H]2[C@H]1C(=C)CO
11 | 42.1 µM | C=C1C(=O)O[C@@H]2/C=C(\CO)CC/C=C(\C)C[C@H](OC(=O)/C(=C/C)CO)[C@@H]12
12 | 3.6 µM | C=C[C@]1(C)C[C@H](OC(=O)C(=C)CO)[C@H]2C(=C)C(=O)O[C@@H]2[C@H]1C(=C)C=O
13 | 45 µM | C=C[C@]1(C)C[C@H](OC(=O)C(=C)CO)[C@@H](C(=C)C(=O)OC)[C@H](O)[C@H]1C(=C)CO
14 | > 50 µM | C=C(CO)C(=O)O[C@H]1C[C@@H]2[C@@H]([C@@H](O)[C@@H]1C(=C)C(=O)OC)[C@H](C=O)CC[C@H]2O

Row | Structure (SMILES) | IC50
15 | C=C(CO)C(=O)O[C@H]1C/C(C)=C/CC/C(CO)=C/[C@H]2OC(=O)C(=C)[C@H]12 | 8.6 µM

Test system: RAW264.7
Experiment: Antiinflammatory activity against mouse RAW264.7 cells assessed as inhibition of LPS induced iNOS at 30 uM preincubated for 1 hr followed by LPS stimulation measured after 18 hrs relative to control
Format: functional
Conditions: not given

Row | Structure (SMILES) | inhibition at 30 µM
16 | CC1=C2C3=CC[C@@H]4[C@@]5(C)CC[C@H](O[C@@H]6OC[C@@H](O)[C@H](O)[C@H]6O)C(C)(C)[C@@H]5CC[C@@]4(C)[C@]3(C)CC[C@@]2(C(=O)O[C@@H]2O[C@H](CO)[C@@H](O)[C@H](O)[C@H]2O)CC[C@H]1C | 64.9%
17 | CC1=C2C3=CC[C@@H]4[C@@]5(C)CC[C@H](O[C@@H]6OC[C@@H](O)[C@H](O)[C@H]6O[C@@H]6O[C@H](CO)[C@@H](O)[C@H](O)[C@H]6O)C(C)(C)[C@@H]5CC[C@@]4(C)[C@]3(C)CC[C@@]2(C(=O)O[C@@H]2O[C@H](CO)[C@@H](O)[C@H](O)[C@H]2O)CC[C@H]1C | 75%
18 | CC1(C)CC[C@]2(C(=O)O[C@@H]3O[C@H](CO)[C@@H](O)[C@H](O)[C@H]3O)CC[C@]3(C)C(=CC[C@@H]4[C@@]5(C)CC[C@H](O[C@@H]6O[C@H](C(=O)O)[C@@H](O)[C@H](O)[C@H]6O)C(C)(C)[C@@H]5CC[C@]43C)[C@@H]2C1 [CHIKUSETSUSAPONIN IVA] | 92.8%
19 | CC1=C(C)[C@H]2C3=CC[C@@H]4[C@@]5(C)CC[C@H](O[C@@H]6OC[C@@H](O)[C@H](O)[C@H]6O[C@@H]6O[C@H](CO)[C@@H](O)[C@H](O)[C@H]6O)C(C)(C)[C@@H]5CC[C@@]4(C)[C@]3(C)CC[C@@]2(C(=O)O[C@@H]2O[C@H](CO)[C@@H](O)[C@H](O)[C@H]2O)CC1 | 72%

Target: Nitric oxide synthase, inducible (Homo sapiens, UniProt P35228)
Experiment: Inhibition of iNOS (unknown origin) at 20 uM relative to control
Conditions: not given

Chain of Nitric oxide synthase, inducible (P35228 whole entry): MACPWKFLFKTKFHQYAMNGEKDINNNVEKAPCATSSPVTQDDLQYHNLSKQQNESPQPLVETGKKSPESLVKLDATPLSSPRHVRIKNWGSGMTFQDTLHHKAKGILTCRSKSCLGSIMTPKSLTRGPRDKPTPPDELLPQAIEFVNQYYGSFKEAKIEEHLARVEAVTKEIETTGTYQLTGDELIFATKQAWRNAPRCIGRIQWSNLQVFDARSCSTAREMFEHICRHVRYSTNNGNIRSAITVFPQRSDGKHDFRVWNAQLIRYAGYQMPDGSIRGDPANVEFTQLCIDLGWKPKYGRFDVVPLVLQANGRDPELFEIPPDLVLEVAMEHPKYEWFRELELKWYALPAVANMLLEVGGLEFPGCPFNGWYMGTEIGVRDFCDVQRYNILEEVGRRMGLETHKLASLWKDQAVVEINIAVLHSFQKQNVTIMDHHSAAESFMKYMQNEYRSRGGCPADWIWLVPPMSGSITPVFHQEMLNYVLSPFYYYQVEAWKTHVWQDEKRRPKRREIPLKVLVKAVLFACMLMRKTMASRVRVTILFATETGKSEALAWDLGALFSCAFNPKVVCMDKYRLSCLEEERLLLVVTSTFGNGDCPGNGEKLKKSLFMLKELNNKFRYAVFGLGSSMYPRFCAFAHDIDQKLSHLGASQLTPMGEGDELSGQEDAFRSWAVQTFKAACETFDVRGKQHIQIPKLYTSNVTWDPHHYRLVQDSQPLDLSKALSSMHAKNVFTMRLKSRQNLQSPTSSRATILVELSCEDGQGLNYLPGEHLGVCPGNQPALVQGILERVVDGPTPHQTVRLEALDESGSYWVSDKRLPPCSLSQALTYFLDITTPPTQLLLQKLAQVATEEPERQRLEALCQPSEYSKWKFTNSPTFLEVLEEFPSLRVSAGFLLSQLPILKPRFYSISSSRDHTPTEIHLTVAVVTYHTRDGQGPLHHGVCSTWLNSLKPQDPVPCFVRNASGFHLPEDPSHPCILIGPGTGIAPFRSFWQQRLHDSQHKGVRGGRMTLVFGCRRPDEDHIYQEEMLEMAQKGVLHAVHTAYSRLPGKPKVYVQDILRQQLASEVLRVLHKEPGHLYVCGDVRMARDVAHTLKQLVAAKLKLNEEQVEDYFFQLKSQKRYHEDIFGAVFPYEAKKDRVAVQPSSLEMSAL

Row | inhibition | Structure (SMILES)
20 | 49.1% | COc1cc(C2OCC3C(c4ccc(O)c(OC)c4)OCC23)ccc1O (stereo unspecified)
21 | 100% | C=C1C(=O)O[C@@H]2[C@H]3[C@@H](C)C(=O)C[C@H]3C(=C)CC[C@@H]12
